Test results taken from PubChem BioAssay (NCI).
Where “and” joins values, the source holds several entries; their conditions need not be identical. Equal values may be shown once.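 Each compound was tested at five concentrations against cells in 96-well plates for 48 hours. The concentration for 50% growth inhibition is given as GI50. TGI: total growth inhibition.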

Legend:
Assay in all cases: NCI tumour cell line growth inhibition, 48 h
SK-OV-3 ovarian = test system: SK-OV-3 ovarian
LOX IMVI melanoma = test system: LOX IMVI melanoma
HT29 colon = test system: HT29 colon
DU-145 prostate = test system: DU-145 prostate
T-47D breast = test system: T-47D breast
HL-60(TB) leukemia = test system: HL-60(TB) leukemia
MDA-N = test system: MDA-N
SW-620 colon = test system: SW-620 colon
A549 NSCLC = test system: A549 NSCLC
MOLT-4 leukemia = test system: MOLT-4 leukemia
A498 renal = test system: A498 renal
MDA-MB-435 = test system: MDA-MB-435
MDA-MB-231 breast = test system: MDA-MB-231 breast

Row | SMILES | TGI (SK-OV-3 ovarian) | TGI (LOX IMVI melanoma) [µM] | TGI (HT29 colon) [µM] | TGI (DU-145 prostate) | TGI (T-47D breast) | TGI (HL-60(TB) leukemia) | TGI (MDA-N) [µM] | TGI (SW-620 colon) [µM] | TGI (A549 NSCLC) | TGI (MOLT-4 leukemia) [µM] | TGI (A498 renal) | TGI (MDA-MB-435) [µM] | TGI (MDA-MB-231 breast) | GI50 (SK-OV-3 ovarian) | GI50 (LOX IMVI melanoma) | GI50 (T-47D breast) [µM] | GI50 (A498 renal) | GI50 (MDA-MB-435) [µM] | GI50 (MDA-MB-231 breast) | GI50 (A549 NSCLC) [µM]
1 | C[C@@H]1CC[C@]2(C)C3(C)CC[C@]2(OC3=O)[C@@]12CC(c1ccoc1)OC2=O (some centres undefined) | > 100 µM | 43.6 | > 100 | > 100 µM | > 100 µM | 44.3 µM | > 100 | 74.2 | > 100 µM | 84.4 | > 100 µM | 56.4 |  |  |  |  |  |  |  | 
2 | CCOC(=O)C1S(=O)(=O)OCCOS1(=O)=O | > 100 µM | > 100 | > 100 |  |  | > 100 µM |  | > 100 | > 100 µM | > 100 |  |  |  |  |  |  |  |  |  | 
3 | CCOC(=O)C1(C/C=C\CBr)CCCC1=O (centres undefined) | > 100 µM | 31.2 | > 100 | 73.2 µM | 94.3 µM |  |  | 54.9 | > 100 µM |  | > 100 µM | 57.2 | 84 µM |  |  |  |  |  |  | 
4 | O=C(NCCC1CNc2ccccc21)OCc1ccccc1 (centres undefined) | > 100 µM |  | > 100 | > 100 µM |  |  | > 100 | > 100 | > 100 µM | > 100 | > 100 µM | > 100 | > 100 µM |  |  |  |  |  |  | 
5 | COc1ccc(-c2c(C3=NCCCN3)nnn2-c2ccccc2)cc1 | > 100 µM | > 100 | > 100 |  |  | > 100 µM |  | > 100 | > 100 µM | > 100 | > 100 µM |  |  |  |  |  |  |  |  | 
6 | COc1cc([C@@H]2c3cc4c(cc3[C@@H](Nc3ccc(NC(=O)c5cc([N+](=O)[O-])cn5C)cc3)[C@H]3COC(=O)[C@H]23)OCO4)cc(OC)c1O | > 100 µM and 19.1 µM |  | 1.33 | 0.0772 µM and 0.0578 µM | 28.8 µM and > 24.4 µM | 0.201 µM and 0.0837 µM |  |  | 1.31 µM and 0.309 µM |  | 0.402 µM and 0.476 µM | > 100 | 17.3 µM and 14.6 µM | 0.104 µM and 0.262 µM | 0.111 µM and 0.0268 µM | 0.0115 | 0.0233 µM and 0.0897 µM | 0.415 | 1.34 µM and 4.74 µM | 
7 | Cn1c(CNc2ccc(-c3n[nH]c(=S)n3C)cc2)n[nH]c1=S | > 100 µM | > 100 | > 100 | > 100 µM |  | > 100 µM | > 100 | > 100 | > 100 µM | > 100 |  | > 100 | > 100 µM |  |  |  |  |  |  | 
8 | CCCCCCCCOCC(COC(=O)CCCCCCC)OC(=O)CCCCCCC (centres undefined) | > 100 µM | > 100 | > 100 |  |  | > 100 µM |  | > 100 | > 100 µM | > 100 | > 100 µM |  |  |  |  |  |  |  |  | 
9 | CCOC(=O)/C(=C/c1ccccn1)C(=O)c1ccccc1 | 36.7 µM | 6.94 | 30.4 |  |  | 5.3 µM |  | 32.6 | 44.5 µM | 26 | 43.1 µM |  |  |  |  |  |  |  |  | 
10 | O=C1CC(c2ccc(Cl)cc2)=Nc2ccccc2N1 | 97.3 µM | 58.8 | > 100 |  |  | 57.6 µM |  | 47.9 | > 100 µM | > 100 | > 100 µM |  |  |  |  |  |  |  |  | 
11 | COc1cc(C2c3cc4c(cc3OC(NN)C2C)OCO4)cc(OC)c1O (centres undefined) |  |  |  | > 100 µM | 31 µM | 5.32 µM |  | > 100 | 53.5 µM |  |  |  | 84.9 µM |  |  |  |  |  |  | 
12 | CC(C)(C)OC(=O)N(CCCCNC(=O)C(F)(F)F)CCCNC(=O)C(F)(F)F | > 100 µM |  | > 100 | > 100 µM | > 100 µM | > 100 µM |  | > 100 | > 100 µM | > 100 | > 100 µM | > 100 | > 100 µM |  |  |  |  |  |  | 
13 | CSc1nncc(-c2cc3c(c(SC)n2)CCCC3)n1 | > 100 µM |  | > 100 | > 100 µM |  | > 100 µM | > 100 | > 100 | > 100 µM | > 100 | > 100 µM | > 100 | > 100 µM |  |  |  |  |  |  | 
14 | CC(C)(CN1CCCCC1)C(=O)/C=C/c1ccc(Br)cc1 | 8.18 µM | 4.63 | 12.6 |  |  | 5.83 µM |  | 6.83 | 7.9 µM | 6.87 | 5.8 µM |  |  |  |  |  |  |  |  | 
15 | COc1ccc2ccccc2c1C1=NC(C)(C)CO1 | > 100 µM |  | > 100 |  |  | > 100 µM |  | > 100 | > 100 µM | > 100 |  |  |  |  |  |  |  |  |  | 
16 | O=C1CC(c2cccc(Cl)c2)Nc2ccc(N3CCCC3)cc21 (centres undefined) | > 100 µM | > 100 | 0.331 | 2.25 µM and 13.6 µM | > 100 µM |  |  | > 100 | > 100 µM |  | > 100 µM |  | > 100 µM |  |  |  |  |  | 0.433 µM | 0.0153
17 | COC(=O)c1c(C)cccc1/C=C1\Cc2ccc(C)c(C)c2C1=O |  | > 100 | > 100 | > 100 µM | > 100 µM | > 100 µM | > 100 | > 100 | > 100 µM | > 100 | > 100 µM |  | > 100 µM |  |  |  |  |  |  | 
18 | COC(=O)[C@@]12OC[C@]34C([C@@H](O)C1O)[C@@]1(C)CC(=O)C(OC(=O)CC(C)C(F)(F)F)=C(C)C1C[C@H]3OC(=O)[C@H](O)[C@H]42 (some centres undefined) | > 62.5 µM |  | > 62.5 |  |  | 1.98 µM |  | > 62.5 | > 62.5 µM | 19.4 | 0.625 µM |  |  |  |  |  |  |  |  | 
19 | COC(=O)[C@@H]1[C@@H]2NC(=S)N[C@@]1(C)Oc1ccccc12 | > 100 µM | > 100 | > 100 | > 100 µM | > 100 µM |  | 88.1 | > 100 |  | > 100 | > 100 µM | 33.5 | > 100 µM |  |  |  |  |  |  | 
20 | CSC(=O)/C=C1\SS/C(=C\C(=O)SC)S1 |  | 3.09 | 7.03 | 15.7 µM | 20.6 µM |  | 8.37 | 4.15 | 19.6 µM | > 100 | 21.5 µM | 7.08 | 4.85 µM |  |  |  |  |  |  | 
21 | COC(=O)C(C(=O)C(=O)Nc1c(Cl)cc([N+](=O)[O-])cc1Cl)c1csc(-n2nc(C3=CCCCC3)cc2-c2ccccc2)n1 (centres undefined) | > 100 µM | > 100 | > 100 |  |  | > 100 µM |  | > 100 | > 100 µM | > 100 | > 100 µM |  |  |  |  |  |  |  |  | 
22 | NC1=NC(Cn2nc(-c3ccccc3)c3ccccc3c2=O)=NNC(=O)N1 | > 100 µM |  | > 100 |  |  |  |  | > 100 | > 100 µM | > 100 | > 100 µM |  |  |  |  |  |  |  |  | 
